Results on 7 substances are retold here after US10544178B2, “Metal complex compound and preparing method and usage thereof” (National Changhua University of Education, priority 2018, dated 2020).

Data set [1] has as its system PC-3 prostatic cancer cell.
Procedure: (§1) Pharmacology Research: cytotoxicity research upon PC-3 prostatic cancer and DU145 breast cancer
(§2) Human cell HRMPC performing cell activity of PC-3 prostatic cancer and DU145 breast cancer is placed into PRMI1640 culture medium to be cultured under a temperature of 37° C. in a 5% CO2/95% air. The PRMI1640 culture medium contains 10% FBS and penicillin (100 U/ml)/streptomycin (100 U/ml).
(§3) Subsequently, the cell survivability is quantified through colorimetry (Sulforhodamine B Assay).

Procedure for DU145 breast cancer cell: as §1, §2, §3

Take “para-methylisopropylphenylchloride-1-carbonyl-3-n-phenyl-1-phenyl-2-butyleneruthenium [Embodiment 1]”: the concentration for half-maximal inhibition (IC50) turned out to be 9.31 ± 1.48 µM in the data set with DU145 breast cancer cell and 5.66 ± 0.2 µM in data set [1].
On to “para-methylisopropylphenylchloride-1-carbonyl-3-[(2,6-diisopropyl)n-phenyl]-1-phenyl-2-butyleneruthenium [Embodiment 3]”, for which the IC50 with DU145 breast cancer cell was found to be 5.37 ± 0.06 µM; in data set [1] it was 2.39 ± 0.13 µM.
As for “para-methylisopropylphenylchloride-1-carbonyl-3-[(2-methoxyl) n-phenyl]-1-phenyl-2-butyleneruthenium [Embodiment 2]”, the results for the IC50 (in the data set with DU145 breast cancer cell; in data set [1]) were 14.3 ± 0.28 µM and 5.68 ± 0.12 µM, respectively.
In the data set on DU145 breast cancer cell, “para-methylisopropylphenylchloride-2-(2-indazolyl)1-phenyl-1-oxyethylruthenium [Embodiment 7]” registered an IC50 of over 30 µM.
As to “para-methylisopropylphenylchloride-2-[1-(2-naphthyl)azomethine]phenoxyruthenium [Embodiment 5]”, the results for the half-inhibitory concentration (IC50) (in the data set on DU145 breast cancer cell; in data set [1]) were 14.2 ± 0.35 µM and 4.58 ± 0.32 µM, respectively.
“para-methylisopropylphenylchloride-2-[1-para-tolueneimino]phenoxyruthenium [Embodiment 4]”: the IC50 in the data set on DU145 breast cancer cell turned out to be 13.1 ± 0.95 µM; in data set [1], 3.01 ± 1.17 µM.
In the case of “para-methylisopropylphenylchloride-1-(para-diethylaminophenyl)-3-[(1-methyl-3-indazolyl)imino]-1-oxypropylruthenium [Embodiment 6]”, the IC50 (with DU145 breast cancer cell; in data set [1]) was over 30 µM throughout.
